{"source": "patent US20080242869A1", "about": "“Tri(Cyclo) Substituted Amide Compounds” (priority 2004, published 2008)", "target": "T1, GST-GK, derived from human liver GK (Homo sapiens, UniProt P35557)", "T1 sequence (P35557 1-466 isoform P35557-2)": "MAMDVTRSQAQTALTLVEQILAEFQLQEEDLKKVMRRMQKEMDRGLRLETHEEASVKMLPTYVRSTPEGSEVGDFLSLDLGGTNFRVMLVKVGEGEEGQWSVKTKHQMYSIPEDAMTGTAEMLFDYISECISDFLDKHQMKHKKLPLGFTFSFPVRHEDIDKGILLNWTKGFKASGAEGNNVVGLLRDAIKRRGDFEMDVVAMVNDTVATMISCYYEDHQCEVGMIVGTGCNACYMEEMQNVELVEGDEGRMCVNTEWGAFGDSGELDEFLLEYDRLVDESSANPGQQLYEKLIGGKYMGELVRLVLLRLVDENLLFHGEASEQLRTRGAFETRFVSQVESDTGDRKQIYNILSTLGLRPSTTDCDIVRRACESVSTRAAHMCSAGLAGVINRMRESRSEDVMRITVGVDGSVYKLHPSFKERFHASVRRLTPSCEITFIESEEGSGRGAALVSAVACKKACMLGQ", "test": "In vitro GK activity: G6P production by GST-GK coupled to NADPH generation with G6PDH", "format": "biochemical", "conditions": "5 mM D-Glc, 30° C., OD 340 nm over 10 min", "experimental": "Using a protocol similar to that described in WO2000/58293, GK activity may be assayed by coupling the production of G6P by GST-GK to the generation of NADPH with G6PDH as the coupling enzyme.\nThe GK assay is performed at 30° C. in a flat bottom 96-well assay plate from Costar with a final incubation volume of 100 μL. The assay buffer contains: 25 mM Hepes buffer (pH 7.4), 12.5 mM KCl, 5 mM D-Glc, 5 mM ATP, 6.25 mM NADP, 25 mM MgCl2, 1 mM dithiothreitol, test compound or 5% DMSO, 3.0 unit/mL G6PDH, and 0.4 μL/mL GST-GK, derived from human liver GK. ATP, G6PDH, and NADP may be purchased from Roche Diagnostics. The other reagents are >98% pure and may be purchased from Kanto Chemicals. The test compounds are dissolved in DMSO, before being added to the assay buffer without ATP. This mix is preincubated in the temperature controlled chamber of a SPECTRAmax 250 microplate spectrophotometer (Molecular Devices Corporation, Sunnyvale, Calif.) for 10 min, then the reaction started by the addition of 10 μL ATP solution.\nAfter starting the reaction, the increase in optical density (OD) at 340 nm is monitored over a 10 min incubation period as a measure of GK activity. […] The compound concentrations that produced a 50% increase in GK activity (i.e. FA1.5) are calculated. […]", "data": [{"smiles": "O=C1CC[C@H](C[C@@H](C(=O)Nc2ncc(F)s2)c2ccc(S(=O)(=O)C3CC3)cc2)C1", "note": "[Example 7, 2(R)-2-(4-Cyclopropanesulfonylphenyl)-N-(5-fluorothiazol-2-yl)-3-((R)-3-oxocyclopentyl)propionamide]", "values": [{"measurement": "maximum activation of GK", "result": "greater than 4 fold"}, {"measurement": "EC50", "setting": "read-out: EC50 (concentration of test compound which produces 50% activation)", "result": "< 0.5", "unit": "µM"}]}]}
